Counter-ions that a name gives are not always drawn.

In one assay the test system is primary neurons. Description: TMRM fluorescence assay of inner mitochondrial membrane potential (ΔΨm). The settings on record: primary screen, 12.5 μM, 24 h. The method, then:
Mitochondrial dyes. To assay the electrochemical potential across the inner mitochondrial membrane of cultured cells, we used the cell-permeant dye tetramethylrhodamine methyl ester (TMRM). For co-localization studies with Mt-GFP, TMRM was used at 20 nM on DIV14 and incubated for 30 min prior to imaging. For the orthogonal screen of compounds, TMRM was added to primary neurons on DIV13 at 10 nM, one hr prior to pintooling selected compounds, and incubated for 24 hr. Cells were washed 2× with pre-warmed fresh feeding media without B27 before measurements with a plate reader.
(§1) A CLARIOstar (BMG LABTECH) microplate reader was used to measure fluorescence of TMRM and luminescence produced from the ATP.
(§2) Mitochondrial membrane potential (Δψm) and luminescence-based ATP assays. […] Changes of ΔΨm in each well were monitored using the mitochondrial-specific, fluorescent dye TMRM (tetramethyl rhodamine, methyl ester; Molecular Probes) and measured using a CLARIOstar plate reader. […] This concentration was used throughout our experiments. […] Wells in columns 1 and 24 were not loaded with TMRM; these served to measure background signal which was subtracted from the wells to which TMRM was added. To measure the total ATP levels in neurons we utilized the CellTiter-Glo® luminescence-based ATP assay (Promega). DIV13 primary neurons were cultured for 24 h with either DMSO carrier or compound treatment, followed by removing 55 μl culture medium from each well. Plates were maintained at room temperature for 25 m, and 25 μl of CellTiter-Glo® Reagent with the substrate luciferin was then added to each well (Promega). Plates were covered with aluminum foil and shaken vigorously on an orbital shaker for 10 m at 200 rpm and maintained at room temperature for an additional 2 m in dark before being read with the plate reader set to the luminescence mode.
Compound library and hit picking rules. We screened 2400 compounds from the MicroSource Spectrum library. […] FIGS. 13A-13E provide details of the assays used from which hit picking rules were made. In essence, the average fluorescence for each compound in the TMRM assay was determined and compared to the average fluorescence for compounds in the population on each assay plate to produce a Z-score. The Z-scores for each individual compound assayed across the four replicate plates was then averaged.
As to `COc1cc2nc(N3CCN(C(=O)C4COc5ccccc5O4)CC3)nc(N)c2cc1OC` (stereo not drawn) [doxazosin mesylate], the “TMRM Primary” value was 4.39 Z-scores.
Take `COc1cccc2c1C(=O)c1c(O)c3c(c(O)c1C2=O)C[C@@](O)(C(=O)CO)C[C@@H]3O[C@H]1C[C@H](N)[C@H](O)[C@H](C)O1` [doxorubicin]: the “TMRM Primary” value is reported as 4.02 Z-scores.
On the same count and under the same terms, to `CCN(CC)CCOC(=O)C(c1ccccc1)C1CCCCC1` (stereo not drawn) [drofenine hydrochloride] belongs 3.68 Z-scores; to `C[C@]12CC[C@@H]3c4ccc(O)cc4CC[C@H]3[C@@H]1CC[C@@H]2OC(=O)CCC1CCCC1` [estradiol cypionate], 2.59 Z-scores; to `COc1ccc2c(c1)CC[C@@H]1[C@@H]2CC[C@]2(C)[C@@H](O)CC[C@@H]12` [estradiol methyl ether], 3.74 Z-scores.
Still for that read-out and setting: in the case of `CC12CCC3c4ccc(OCc5ccccc5)cc4CCC3C1C[C@@H](O)[C@@H]2O` (stereo partly drawn) [estriol benzyl ether] it was 3.17 Z-scores.
The same measure, in the same setting: to `CC(=O)Oc1ccc2c(c1)CCC1C2CC[C@]2(C)C(=O)CCC12` (stereo partly drawn) [estrone acetate] belongs 3.26 Z-scores; to `CCOC(=O)C1=C(C)NC(C)=C(C(=O)OC)C1c1cccc(Cl)c1Cl` (stereo not drawn) [felodipine], 3.80 Z-scores; to `C[C@]12CC[C@@H]3c4ccc(O)cc4C[C@@H](CCCCCCCCC[S+]([O-])CCCC(F)(F)C(F)(F)F)[C@H]3[C@@H]1CC[C@@H]2O` (stereo partly drawn) [fulvestrant], 3.31 Z-scores.
As for `COc1cc(O)c2c(=O)cc(C)oc2c1CC=C(C)C` [heteropeucenin, methyl ether], the “TMRM Primary” value was 3.45 Z-scores.
Still for that read-out and setting: to `CCN(CC)CCNc1ccc(CO)c2sc3ccccc3c(=O)c12` [hycanthone] belongs 4.40 Z-scores; to `OCCOCCN1CCN(C(c2ccccc2)c2ccc(Cl)cc2)CC1` (stereo not drawn) [hydroxyzine pamoate], 3.15 Z-scores.
The same measure, in the same setting: to `CN(C)CCCN1c2ccccc2CCc2ccccc21` [imipramine hydrochloride] belongs 3.31 Z-scores.
The same measure, in the same setting: to `OCc1c[nH]c2ccccc12` [indole-3-carbinol] belongs 3.15 Z-scores.

The assay is the same for the next values; noted with them: rescreen, 24 h.
In the case of `COc1cc2nc(N3CCN(C(=O)C4COc5ccccc5O4)CC3)nc(N)c2cc1OC` (stereo not drawn) [doxazosin mesylate], the “TMRM Rescreen” value is reported as 5.94 Z-scores.
On the same count and under the same terms, in the case of `COc1cccc2c1C(=O)c1c(O)c3c(c(O)c1C2=O)C[C@@](O)(C(=O)CO)C[C@@H]3O[C@H]1C[C@H](N)[C@H](O)[C@H](C)O1` [doxorubicin] it was 5.05 Z-scores; in that of `CCN(CC)CCOC(=O)C(c1ccccc1)C1CCCCC1` (stereo not drawn) [drofenine hydrochloride], 5.96 Z-scores.
The same measure, in the same setting: in the case of `C[C@]12CC[C@@H]3c4ccc(O)cc4CC[C@H]3[C@@H]1CC[C@@H]2OC(=O)CCC1CCCC1` [estradiol cypionate] it was 4.67 Z-scores; in that of `COc1ccc2c(c1)CC[C@@H]1[C@@H]2CC[C@]2(C)[C@@H](O)CC[C@@H]12` [estradiol methyl ether], 3.55 Z-scores; in that of `CC12CCC3c4ccc(OCc5ccccc5)cc4CCC3C1C[C@@H](O)[C@@H]2O` (stereo partly drawn) [estriol benzyl ether], 6.67 Z-scores.
On the same count and under the same terms, to `CC(=O)Oc1ccc2c(c1)CCC1C2CC[C@]2(C)C(=O)CCC12` (stereo partly drawn) [estrone acetate] belongs 5.89 Z-scores.
For the compound `CCOC(=O)C1=C(C)NC(C)=C(C(=O)OC)C1c1cccc(Cl)c1Cl` (stereo not drawn) [felodipine], the “TMRM Rescreen” value came to 2.41 Z-scores.
On the same count and under the same terms, to `C[C@]12CC[C@@H]3c4ccc(O)cc4C[C@@H](CCCCCCCCC[S+]([O-])CCCC(F)(F)C(F)(F)F)[C@H]3[C@@H]1CC[C@@H]2O` (stereo partly drawn) [fulvestrant] belongs 6.27 Z-scores; to `COc1cc(O)c2c(=O)cc(C)oc2c1CC=C(C)C` [heteropeucenin, methyl ether], 4.33 Z-scores.
The same measure, in the same setting: to `CCN(CC)CCNc1ccc(CO)c2sc3ccccc3c(=O)c12` [hycanthone] belongs 5.48 Z-scores.
The same measure, in the same setting: to `OCCOCCN1CCN(C(c2ccccc2)c2ccc(Cl)cc2)CC1` (stereo not drawn) [hydroxyzine pamoate] belongs 6.04 Z-scores.
On to `CN(C)CCCN1c2ccccc2CCc2ccccc21` [imipramine hydrochloride], for which the “TMRM Rescreen” value turned out to be 0.91 Z-scores.
Take `OCc1c[nH]c2ccccc12` [indole-3-carbinol]: the “TMRM Rescreen” value is reported as 6.27 Z-scores.

The subject of another assay is primary neurons. Description: CellTiter-Glo luminescence-based ATP assay. It counts as cell-based, mouse. The settings on record: ATP orthogonal screen, 24 h. The method, then:
Measurement of ATP production. The total amount of ATP produced by cultured primary neurons was measured by CellTiter-Glo Luminescent Cell Viability Assay (Promega). A recombinant luciferase enzyme catalyzed the mono-oxygenation of luciferin while hydrolyzing ATP produced by the cells and emitting light. We followed the manufacturer's protocol with primary neurons on DIV14.
as §1, §2
Compound library and hit picking rules. We screened 2400 compounds from the MicroSource Spectrum library. […] FIGS. 13A-13E provide details of the assays used from which hit picking rules were made. In essence, the average fluorescence for each compound in the TMRM assay was determined and compared to the average fluorescence for compounds in the population on each assay plate to produce a Z-score. The Z-scores for each individual compound assayed across the four replicate plates was then averaged. Because of significant well location effects (outer rows) on each assay plate (FIG. 13G), we selected primary hits as enhancing well fluorescence above the μplate by 3σplate for inner row wells (rows C-N, columns 3-22), and by 2.5σplate for outer row wells (rows A, B, O, P; columns 3-22) (FIG. 14C-D). […] All orthogonal assays employed inner wells of the 384-well plates.
On the technique in general: Cellular ATP, detected with luciferase, serves as a proxy for viable cell number.
The compound `COc1cc2nc(N3CCN(C(=O)C4COc5ccccc5O4)CC3)nc(N)c2cc1OC` (stereo not drawn) [doxazosin mesylate] registered an ATP of 4.68 Z-scores.
`COc1cccc2c1C(=O)c1c(O)c3c(c(O)c1C2=O)C[C@@](O)(C(=O)CO)C[C@@H]3O[C@H]1C[C@H](N)[C@H](O)[C@H](C)O1` [doxorubicin] came in with an ATP of 4.00 Z-scores.
On the same count and under the same terms, to `CCN(CC)CCOC(=O)C(c1ccccc1)C1CCCCC1` (stereo not drawn) [drofenine hydrochloride] belongs 4.84 Z-scores; to `C[C@]12CC[C@@H]3c4ccc(O)cc4CC[C@H]3[C@@H]1CC[C@@H]2OC(=O)CCC1CCCC1` [estradiol cypionate], 2.98 Z-scores.
On the same count and under the same terms, in the case of `COc1ccc2c(c1)CC[C@@H]1[C@@H]2CC[C@]2(C)[C@@H](O)CC[C@@H]12` [estradiol methyl ether] it was 4.80 Z-scores.
Compound `CC12CCC3c4ccc(OCc5ccccc5)cc4CCC3C1C[C@@H](O)[C@@H]2O` (stereo partly drawn) [estriol benzyl ether] yielded an ATP of 2.03 Z-scores.
Still for that read-out and setting: in the case of `CC(=O)Oc1ccc2c(c1)CCC1C2CC[C@]2(C)C(=O)CCC12` (stereo partly drawn) [estrone acetate] it was 3.36 Z-scores; in that of `CCOC(=O)C1=C(C)NC(C)=C(C(=O)OC)C1c1cccc(Cl)c1Cl` (stereo not drawn) [felodipine], 5.08 Z-scores; in that of `C[C@]12CC[C@@H]3c4ccc(O)cc4C[C@@H](CCCCCCCCC[S+]([O-])CCCC(F)(F)C(F)(F)F)[C@H]3[C@@H]1CC[C@@H]2O` (stereo partly drawn) [fulvestrant], 4.27 Z-scores.
Turning to `COc1cc(O)c2c(=O)cc(C)oc2c1CC=C(C)C` [heteropeucenin, methyl ether], the ATP was 5.92 Z-scores.
The same measure, in the same setting: to `CCN(CC)CCNc1ccc(CO)c2sc3ccccc3c(=O)c12` [hycanthone] belongs 4.61 Z-scores; to `OCCOCCN1CCN(C(c2ccccc2)c2ccc(Cl)cc2)CC1` (stereo not drawn) [hydroxyzine pamoate], 5.22 Z-scores.
On the same count and under the same terms, to `CN(C)CCCN1c2ccccc2CCc2ccccc21` [imipramine hydrochloride] belongs 5.10 Z-scores; to `OCc1c[nH]c2ccccc12` [indole-3-carbinol], 6.52 Z-scores.

Source of the values: US20230003721A1, “MITOTHERAPEUTICS FOR THE TREATMENT OF BRAIN DISORDERS” (The University of Florida Research Foundation, Inc., priority 2019, published 2023).
